Results published in patent US20250171418A1, “PARP1 INHIBITORS AND USES THEREOF” (XinThera, Inc., priority 2022, published 2025).

Columns and labels:
DLD-1 BRCA2(−/−) = assay: Cell growth inhibition assay (CellTiter-Glo cell viability); format: cell-based; conditions: DLD-1 BRCA2(−/−) cells, 7 days, CellTiter Glo 2.0
Method: (§1) Cell proliferation was measured through the cell viability assay using DLD-1 BRCA2(−/−) and parental isogenic pair and MDA-MB-436 (mutated BRCA1) cell lines. The CellTiter-Glo (CTG) based cell viability assay is designed to determine the number of viable cells in the culture because of compound effect, by quantifying ATP, which indicates the presence of metabolically active cells.
(§2) DLD-1 BRCA2(−/−) and parental isogenic pair were cultured in RPMI 1640 supplemented with 10% fetal bovine serum (FBS), and MDA-MB-436 cells were cultured in DMEM supplemented with 10% FBS. Both were cultured at 37° C. with […]. Invention compounds were distributed to the 384 well plate (Corning, 3764) using Echo acoustic liquid handler to form a 1:3 serially diluted final concentration with top dose of 10 or 30 μM.

[1] = test system: MDA-MB-436 (mutated BRCA1) cell lines; assay: as above; format: cell-based; conditions: MDA-MB-436 cells, 7 days, CellTiter Glo 2.0
Method: as §1, §2

PARP1 = PARP1 (Homo sapiens, UniProt P09874); assay: biochemical
Sequence of PARP1 (P09874 whole entry): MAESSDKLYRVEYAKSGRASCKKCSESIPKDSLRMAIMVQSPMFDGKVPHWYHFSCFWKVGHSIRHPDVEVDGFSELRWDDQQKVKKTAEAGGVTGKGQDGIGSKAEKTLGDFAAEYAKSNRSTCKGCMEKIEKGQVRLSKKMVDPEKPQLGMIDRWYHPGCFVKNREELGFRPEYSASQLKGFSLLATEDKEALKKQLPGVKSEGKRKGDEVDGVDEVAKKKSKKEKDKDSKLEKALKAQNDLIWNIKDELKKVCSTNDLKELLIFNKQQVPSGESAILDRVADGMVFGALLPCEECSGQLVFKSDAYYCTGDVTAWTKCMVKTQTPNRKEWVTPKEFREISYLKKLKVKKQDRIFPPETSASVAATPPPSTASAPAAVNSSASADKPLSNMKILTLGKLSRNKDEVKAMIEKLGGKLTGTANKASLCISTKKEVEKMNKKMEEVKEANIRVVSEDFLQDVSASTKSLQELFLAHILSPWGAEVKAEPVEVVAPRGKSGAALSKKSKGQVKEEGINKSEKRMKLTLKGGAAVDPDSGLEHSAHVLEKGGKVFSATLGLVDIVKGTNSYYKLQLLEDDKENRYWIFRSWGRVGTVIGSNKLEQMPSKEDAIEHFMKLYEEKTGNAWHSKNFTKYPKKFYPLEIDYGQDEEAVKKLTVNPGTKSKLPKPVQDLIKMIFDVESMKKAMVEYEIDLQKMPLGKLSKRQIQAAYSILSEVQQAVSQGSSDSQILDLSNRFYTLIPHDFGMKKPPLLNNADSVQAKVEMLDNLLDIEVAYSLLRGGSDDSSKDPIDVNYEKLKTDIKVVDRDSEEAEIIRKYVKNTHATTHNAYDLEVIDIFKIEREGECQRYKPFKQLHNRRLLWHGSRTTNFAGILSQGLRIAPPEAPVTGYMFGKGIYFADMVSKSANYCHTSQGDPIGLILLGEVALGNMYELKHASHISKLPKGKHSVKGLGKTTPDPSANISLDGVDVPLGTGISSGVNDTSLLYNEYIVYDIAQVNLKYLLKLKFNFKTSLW
Method: The assay was performed utilizing the following method:
Compounds were dissolved in DMSO an Echo550 liquid handler was utilized to make serial dilations in the desired concentration range in Optiplate-384F plates. 100% DMSO was used for the high (with protein) and low (without protein) control samples. 20 nL of compound or DMSO alone was added to individual assay plate wells.
PARP1 and PARP2 protein were expressed, purified, and diluted in assay buffer containing 50 mM Tris pH 8.0, 0.001% Triton X-100, 10 mM MgCl2, 150 mM NaCl to a final concentration of 20 nM. The PARPi-FL was then added at a final concentration of 3 nM.
The assay plate was centrifuged at 1000 rpm for 1 min and incubated for 4 h at room temperature.
The fluorescent polarization was read using an Envision plate reader using the following settings: • Excitation filter—FITC FP 480-Ex Slot 3 • Emission filter—FITC FP P-pol 535-Em Slot 4 • 2nd Emission filter—FITC FP S-pol 535-Em Slot 3 • Mirror module—FITC FP Dual Enh-Slot 1
XLFit (equation 201) is used to calculate a reported IC50 for each compound.

EC50 (DLD-1 BRCA2(−/−); Homo sapiens, DLD-1, 168 h)	EC50 ([1]; Homo sapiens, 168 h)	IC50 (PARP1)	EC50 (DLD-1 BRCA2(−/−))	EC50 [1]	SMILES
3.5 nM	7 nM				CNC(=O)c1ccc(N2CCN(Cc3ccc4nc(C)c(=O)[nH]c4c3F)[C@H]3C[C@H]32)c(F)n1 (relative stereo) [Example 2, rel-6-fluoro-5-[(1R,6S)-5-[(5-fluoro-2-methyl-3-oxo-4H-quinoxalin-6-yl)methyl]-2,5-diazabicyclo[4.1.0]heptan-2-yl]-N-methylpyridine-2-carboxamide]
84 nM	58 nM	14 nM			Cc1nc2ccc(CN3CCN(c4ccc(C(=O)NC5CC5)nc4)[C@H]4C[C@H]43)c(F)c2[nH]c1=O (single isomer, unassigned) [Example 6]
19 nM	7.2 nM				Cc1nc2ccc(CN3CCN(c4ccc(C(=O)NC5CC5)nc4F)[C@H]4C[C@H]43)c(F)c2[nH]c1=O (single isomer, unassigned) [Example 9]
28 nM	15 nM				CCc1nc2ccc(C(C)N3CCN(c4ccc(C(=O)NC)nc4)CC3)c(F)c2[nH]c1=O (single isomer, unassigned) [Example 15]
			30 nM	15 nM	CCc1nc2ccc(C(C)N3CCN(c4ccc(C(=O)NC)nc4)CC3)c(F)c2[nH]c1=O (single isomer, unassigned) [Example 16]
7.7 nM	6.8 nM	24 nM			CCc1nc2ccc([C@H](C)N3CCN(c4ccc(C(=O)NC)nc4F)CC3)c(F)c2[nH]c1=O (single isomer, unassigned) [Example 17]
8.7 nM	4.4 nM	15 nM			CCc1nc2ccc([C@@H](C)N3CCN(c4ccc(C(=O)NC)nc4F)CC3)c(F)c2[nH]c1=O (single isomer, unassigned) [Example 18]
5.7 nM	3.1 nM				Cc1nc2ccc(CN3CCN(c4ccc(C(=O)N[C@H]5CC5(F)F)nc4F)CC3)c(F)c2[nH]c1=O (single isomer, unassigned) [Example 20]
25 nM	14 nM				CNC(=O)c1ccc(N2CCN([C@@H](C)c3ccc4nc(C)c(=O)[nH]c4c3F)CC2)c(F)n1 (single isomer, unassigned) [Example 22]
18 nM	18 nM				CNC(=O)c1ccc(N2CCN([C@H](C)c3ccc4nc(C)c(=O)[nH]c4c3F)CC2)c(F)n1 (single isomer, unassigned) [Example 23]
20 nM	7.9 nM	24 nM			Cc1nc2ccc([C@H](C)N3CCN(c4ccc(C(=O)NC5CC5)nc4F)CC3)c(F)c2[nH]c1=O (single isomer, unassigned) [Example 24]
35 nM	12 nM	24 nM			Cc1nc2ccc([C@@H](C)N3CCN(c4ccc(C(=O)NC5CC5)nc4F)CC3)c(F)c2[nH]c1=O (single isomer, unassigned) [Example 25]
970 nM	21 nM	70 nM			Cc1nc2ccc([C@H](C)N3CCN(c4ccc(C(=O)NC5CC5)nc4)CC3)c(F)c2[nH]c1=O (single isomer, unassigned) [Example 28]
45 nM	84 nM	90 nM			Cc1nc2ccc([C@@H](C)N3CCN(c4ccc(C(=O)NC5CC5)nc4)CC3)c(F)c2[nH]c1=O (single isomer, unassigned) [Example 29]
17 nM	35 nM				CNC(=O)c1ccc(N2CCN(Cc3ccc4nc(C)c(=O)[nH]c4c3F)C[C@H]2C)c(F)n1 [Example 3]
14 nM	8.1 nM				COCCNC(=O)c1ccc(N2CCN(Cc3ccc4nc(C)c(=O)[nH]c4c3F)CC2)c(F)n1 [Example 10]
7.1 nM	5.3 nM				CCc1nc2ccc(CN3CCN(c4ccc(C(=O)NCCOC)nc4F)CC3)c(F)c2[nH]c1=O [Example 12]
4.4 nM	5 nM				Cc1nc2ccc(CN3CCN(c4ccc(C(=O)NC5CC(F)(F)C5)nc4F)CC3)c(F)c2[nH]c1=O [Example 13]
27 nM	11 nM				Cc1nc2ccc(CN3CCC(c4ccc(C(=O)NC5CC5)nc4F)CC3)c(F)c2[nH]c1=O [Example 27]
